US11472778B2, “Hepatitis C virus NS3/4A protease inhibitors” (priority 2017, dated 2022)
Like-named read-outs stand apart in the source and are kept apart here.

Legend:
Type in all cases: biochemical, Hepatitis C virus
[1] = target: GT1a R155K NS3/4A protease (UniProt P27958, R1181K, species not given)
Protocol: (§1) For each assay, 2 nM of NS3/4A protease (GT1a, R155K and D168A) was pre-incubated at room temperature for 1 h with increasing concentration of inhibitors in assay buffer (50 mM Tris, 5% glycerol, 10 mM DTT, 0.6 mM LDAO, and 4% dimethyl sulfoxide, pH 7.5). Inhibition assays were performed in non-binding surface 96-well black half-area plates (Corning) in a reaction volume of 60 μL. […] Three independent data sets were collected for each inhibitor with each protease construct. […] Gibbs free energy of binding was calculated using the following equation: ΔG=RTlnKi

[2] = target: GT1a R155K NS3/4A protease; conditions: fold change in Ki, R155K relative to WT
Protocol: as §1

[3] = target: T1, wild-type GT1a NS3/4A protease (UniProt P27958)
T1 construct: Ki WT; other: wild-type HCV NS3/4A protease
Method in brief: (§2)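 NS3/4A protease (2 nM; wild-type GT1a or D168A) pre-incubated 1 h at room temperature with increasing inhibitor in 50 mM Tris pH 7.5, 5% glycerol, 10 mM DTT, 0.6 mM LDAO, 4% DMSO. Ki from three independent data sets per construct; ΔG=RTlnKi.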

[4] = target: T2, GT1a D168A NS3/4A protease (UniProt P27958, D1194A, species not given)
T2 construct: rows headed: Ki (nM) D168A; Ki D168A; other: D168A variant
Method in brief: as §2

[5] = target: GT1a D168A NS3/4A protease; conditions: fold change in Ki, D168A relative to WT
Method in brief: as §2

[6] = read-out: Ki (nM) R155K, Table 8, linear inhibitors
[7] = read-out: Ki R155K, R155K variant
[8] = read-out: Ki (nM) WT, Table 8, linear inhibitors
[9] = read-out: Ki WT, wild-type HCV NS3/4A protease
[10] = read-out: Ki (nM) D168A, Table 8, linear inhibitors
[11] = read-out: Ki D168A, D168A variant

SMILES	Ki [1, 6]	Ki [1, 7]	Ki R155K (fold change) [2]	Ki [3, 8]	Ki [3, 9]	Ki [4, 10]	Ki [4, 11]	Ki D168A (fold change) [5]
C=C[C@@H]1C[C@]1(NC(=O)[C@@H]1C[C@@H](Oc2nc3cc(OC)ccc3nc2C)CN1C(=O)[C@@H](NC(=O)OC(C)(C)C)C(C)(C)C)C(=O)NS(=O)(=O)C1(C)CC1 [Compound 10b, tert-Butyl ((S)-1-((2S,4R)-4-((7-methoxy-3-methylquinoxalin-2-yl)oxy)-2-(((1R,2S)-1-(((1-methylcyclopropyl)sulfonyl)carbamoyl)-2-vinylcyclopropyl)carbamoyl)pyrrolidin-1-yl)-3,3-dimethyl-1-oxobutan-2-yl)carbamate]	14 ± 1.7 nM	14 ± 1.7 nM	1.0	14 ± 2.1 nM	14 ± 2.1 nM	265 ± 26 nM	265 ± 26 nM	19
C=C[C@@H]1C[C@]1(NC(=O)[C@@H]1C[C@@H](Oc2nc3cc(OC)ccc3nc2C(F)(F)F)CN1C(=O)[C@@H](NC(=O)OC1CCCC1)C(C)(C)C)C(=O)NS(=O)(=O)C1(C)CC1 [Compound 12e, Cyclopentyl ((S)-1-((2S,4R)-4-((7-methoxy-3-(trifluoromethyl)quinoxalin-2-yl)oxy)-2-(((1R,2S)-1-(((1-methylcyclopropyl)sulfonyl)carbamoyl)-2-vinylcyclopropyl)carbamoyl)pyrrolidin-1-yl)-3,3-dimethyl-1-oxobutan-2-yl)carbamate]	22 ± 6.9 nM	22 ± 6.9 nM	1.0	22 ± 3.4 nM	22 ± 3.4 nM	516 ± 61 nM	516 ± 61 nM	24
C=C[C@@H]1C[C@]1(NC(=O)[C@@H]1C[C@@H](Oc2nc3cc(OC)ccc3nc2CC)CN1C(=O)[C@@H](NC(=O)OC1CCCC1)C(C)(C)C)C(=O)NS(=O)(=O)C1(C)CC1 [Compound 12a, Cyclopentyl ((S)-1-((2S,4R)-4-((3-ethyl-7-methoxyquinoxalin-2-yl)oxy)-2-(((1R,2S)-1-(((1-methylcyclopropyl)sulfonyl)carbamoyl)-2-vinylcyclopropyl)carbamoyl)pyrrolidin-1-yl)-3,3-dimethyl-1-oxobutan-2-yl)carbamate]	13 ± 2.7 nM	13 ± 2.7 nM	1.9	6.9 nM	6.9 ± 0.5 nM	145 nM	145 ± 14 nM	21
C=C[C@@H]1C[C@]1(NC(=O)[C@@H]1C[C@@H](Oc2nc3cc(OC)ccc3nc2C(C)C)CN1C(=O)[C@@H](NC(=O)OC1CCCC1)C(C)(C)C)C(=O)NS(=O)(=O)C1CC1 [Compound 11c, Cyclopentyl ((S)-1-((2S,4R)-2-(((1R,2S)-1-((cyclopropylsulfonyl)carbamoyl)-2-vinylcyclopropyl)carbamoyl)-4-((3-isopropyl-7-methoxyquinoxalin-2-yl)oxy)pyrrolidin-1-yl)-3,3-dimethyl-1-oxobutan-2-yl)carbamate]	55 ± 11 nM	55 ± 11 nM	3	17 ± 3.2 nM	17 ± 3.2 nM	985 ± 106 nM	985 ± 106 nM	58
C=C[C@@H]1C[C@]1(NC(=O)[C@@H]1C[C@@H](Oc2nc3cc(OC)ccc3nc2C(C)C)CN1C(=O)[C@@H](NC(=O)OC1CCCC1)C(C)(C)C)C(=O)NS(=O)(=O)C1(C)CC1 [Compound 12c, Cyclopentyl ((S)-1-((2S,4R)-4-((3-isopropyl-7-methoxyquinoxalin-2-yl)oxy)-2-(((1R,2S)-1-(((1-methylcyclopropyl)sulfonyl)carbamoyl)-2-vinylcyclopropyl)carbamoyl)pyrrolidin-1-yl)-3,3-dimethyl-1-oxobutan-2-yl)carbamate]	43 ± 11 nM	43 ± 11 nM	2.0	21 ± 2.6 nM	21 ± 2.6 nM	1000 ± 80 nM	1000 ± 80 nM	48
